Measured values published in patent US9314541B2, “In vivo imaging method for cancer” (GE Healthcare Limited, priority 2010, dated 2016).
Values belong to the compound of their own block, whether it stands above or below them.

Columns and labels:
[1] = target: PBR (Homo sapiens, UniProt P30536); details: in vivo; cited from earlier work
[2] = cited from earlier work
[3] = compared with 11C-PK11195; cited from earlier work
[4] = In vivo biodistribution method; parameters: species or system Wistar rats; details: for OB:Str 30 min: ratio olfactory bulb to striatum, 30 min after injection
Procedure: Imaging agents of the invention were tested in an in vivo biodistribution model.
Adult male Wistar rats (200-300 g) were injected with 1-3 MBq of test compound via the lateral tail vein. At 2, 10, 30 or 60 min (n=3) after injection, rats were euthanised and tissues or fluids were sampled for radioactive measurement on a gamma counter.

[5] = target: T1, Wistar rat heart PBR (Rattus norvegicus, UniProt P16257); assay: In vitro potency assay: competition against 0.3 nM [3H]PK-11195 for binding to PBR; details: non-radioactive analogues tested; vs 0.3 nM [3H]PK-11195; 50 mM Tris-HCl pH 7.4, 10 mM MgCl2, 15 minutes at 25° C.
T1 construct: from tissue; host or cells: Wistar rat heart
Procedure: Non-radioactive analogues of in vivo imaging agents of the invention were tested.
The reaction was carried out in 50 mM Tris-HCl, pH 7.4 10 mM MgCl2 for 15 minutes at 25° C.

Chain of PBR (P30536 whole entry, species assumed): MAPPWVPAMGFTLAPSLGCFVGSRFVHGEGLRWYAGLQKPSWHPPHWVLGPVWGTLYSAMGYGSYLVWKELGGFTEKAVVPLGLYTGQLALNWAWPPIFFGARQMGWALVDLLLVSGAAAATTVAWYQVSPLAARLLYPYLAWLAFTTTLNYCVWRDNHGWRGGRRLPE

Structure (SMILES): CC[C@H](C)N([11CH3])C(=O)c1cc2ccccc2c(-c2ccccc2Cl)n1 [[^11C]PK11195]
brain uptake [1]: relatively low and variable | levels of non-specific binding [1]: relatively high | plasma protein binding [2]: high and variable

Structure (SMILES): CCN(CC)C(=O)Cc1c(-c2ccc(OCC[18F])cc2)nn2c(C)cc(C)nc12 [^18F-DPA-714]
bioavailability [3]: increased

Structure (SMILES): CN(Cc1ccccc1)C(=O)C1CCCc2c1c1ccccc1n2CC[18F] (stereo not shown) [compound 7]
OB:Str 30 min [4]: 3.40

Other lines, results leading:

Brain 2 min (% ID/g) ([4]; brain, 2 min after injection via lateral tail vein, 1-3 MBq, adult male Wistar rats): 0.56 % ID/g | OB 30 min (% ID/g) ([4]; olfactory bulb, 30 min after injection via lateral tail vein, adult male Wistar rats): 0.41 % ID/g | OB:Str 30 min [4]: 3.72
Structure (SMILES): O=C(C1CCCc2c1c1ccccc1n2CC[18F])N1CCCCCC1 (stereo not shown) [compound 9]

Ki [5]: 2.12 nM | OB:Str 30 min [4]: 3.50
Structure (SMILES): CCN(CC)C(=O)C1CC(C)Cc2c1c1ccccc1n2CC[18F] (stereo not shown) [compound 11]
